Experimental data from patent US8039466B2, “5-hydroxymethyl-oxazolidin-2-one antibacterials” (Actelion Pharmaceutical Ltd., priority 2006, dated 2011).
≈ marks a conversion by molar mass, not a printed value. Where two headings read alike, the source gives them in different places. Each block holds one compound with its values, some of them ahead of it.

What was measured:
Test in all cases: MIC by microdilution in cation-adjusted Mueller-Hinton Broth (NCCLS)
Assay type in all cases: cell-based
S. Pneumoniae 49619 = settings: Streptococcus pneumoniae
Protocol: (§1) These assays have been performed following the description given in “Methods for dilution Antimicrobial Susceptibility Tests for Bacteria that Grow Aerobically, 4th ed.; Approved standard: NCCLS Document M7-A4; National Committee for Clinical Laboratory Standards Villanova, Pa., USA, 1997”. Minimal inhibitory concentrations (MICs; mg/l) were determined in cation-adjusted Mueller-Hinton Broth (BBL) by a microdilution method following NCCLS guidelines (National Committee for Clinical Laboratory Standards. Methods for Dilution Antimicrobial Susceptibility). The pH of the test medium was 7.2-7.3. All the above Examples were tested against several Gram positive and Gram negative bacteria.

S. aureus A798 = settings: Staphylococcus aureus
Protocol: as §1

M. catarrhalis A894 = settings: Moraxella catarrhalis, pH of test medium 7.2-7.3
Protocol: as §1

[1] = pH of test medium 7.2-7.3, read-out: MIC S. Pneumoniae 49619
[2] = A798, pH of test medium 7.2-7.3, read-out: MIC S. aureus A798

MIC (S. Pneumoniae 49619; [1]): 0.25 µg/mL (≈ 0.428 µM)
SMILES: O=C(O)c1cn(C2CC2)c2c3c(c(F)cc2c1=O)N1C[C@@H](COc2ccc(N4C[C@H](CO)OC4=O)cc2F)C[C@H]1CO3 [Example 5, (13S,16S)-1-cyclopropyl-7-fluoro-16-[2-fluoro-4-((R)-5-hydroxymethyl-2-oxo-oxazolidin-3-yl)-phenoxymethyl]-4-oxo-1,4,13,15,16,17-hexahydro-12H-11-oxa-1,14-diaza-cyclopenta[a]phenanthrene-3-carboxylic acid]

MIC (S. aureus A798; A798, human serum absent, read-out: MIC against S. aureus A798): 8 µg/mL (≈ 11.3 µM)
MIC (S. aureus A798; A798, in the presence of human serum, read-out: MIC against S. aureus A798): 2 µg/mL
SMILES: O=C(O)c1cn(C2CC2)c2c3c(c(F)cc2c1=O)N1C[C@](O)(COc2ccc(N4C[C@H](COC(=O)C5CCNCC5)OC4=O)cc2F)C[C@H]1CO3 [Example 12, (13S,16S)-1-cyclopropyl-7-fluoro-16-{2-fluoro-4-[(R)-2-oxo-5-(piperidine-4-carbonyloxymethyl)-oxazolidin-3-yl]-phenoxymethyl}-16-hydroxy-4-oxo-1,4,13,15,16,17-hexahydro-12H-11-oxa-1,14-diaza-cyclopenta[a]phenanthrene-3-carboxylic acid]

MIC (S. Pneumoniae 49619; [1]): 0.25 µg/mL
MIC (M. catarrhalis A894): 0.5 µg/mL
MIC (S. aureus A798; [2]): 0.5 µg/mL
SMILES: O=C(O)c1cn(C2CC2)c2c3c(c(F)cc2c1=O)N1CCC(O)(COc2ccc(N4C[C@H](CO)OC4=O)cc2F)C[C@H]1CO3 (mixture of isomers) [Example 6, (6aS,8RS)-4-cyclopropyl-11-fluoro-8-[2-fluoro-4-((R)-5-hydroxymethyl-2-oxo-oxazolidin-3-yl)-phenoxymethyl]-8-hydroxy-1-oxo-1,4,6,6a,7,8,9,10-octahydro-5-oxa-4,10a-diaza-chrysene-2-carboxylic acid]

MIC (S. Pneumoniae 49619; [1]): ≤ 0.063 µg/mL
SMILES: O=C(O)c1cn(C2CC2)c2c3c(c(F)cc2c1=O)N1C[C@](O)(COc2ccc(N4C[C@H](CO)OC4=O)cc2F)C[C@H]1CO3 [Example 1, (13S,16S)-1-cyclopropyl-7-fluoro-16-[2-fluoro-4-((R)-5-hydroxymethyl-2-oxo-oxazolidin-3-yl)-phenoxymethyl]-16-hydroxy-4-oxo-1,4,13,15,16,17-hexahydro-12H-11-oxa-1,14-diaza-cyclopenta[a]phenanthrene-3-carboxylic acid]

MIC (S. Pneumoniae 49619; [1]): 0.25 µg/mL (≈ 0.428 µM)
SMILES: O=C(O)c1cn(C2CC2)c2c3c(c(F)cc2c1=O)N1C[C@H](COc2ccc(N4C[C@H](CO)OC4=O)cc2F)C[C@H]1CO3 [Example 4, (13S,16R)-1-cyclopropyl-7-fluoro-16-[2-fluoro-4-((R)-5-hydroxymethyl-2-oxo-oxazolidin-3-yl)-phenoxymethyl]-4-oxo-1,4,13,15,16,17-hexahydro-12H-11-oxa-1,14-diaza-cyclopenta[a]phenanthrene-3-carboxylic acid]

MIC (S. Pneumoniae 49619; [1]): 0.25 µg/mL
SMILES: O=C(O)c1cn(C2CC2)c2c3c(c(F)cc2c1=O)N1CCC(O)(COc2ccc(N4C[C@H](CO)OC4=O)cc2F)C[C@@H]1CO3 (mixture of isomers) [Example 7, (6aR,8RS)-4-cyclopropyl-11-fluoro-8-[2-fluoro-4-((R)-5-hydroxymethyl-2-oxo-oxazolidin-3-yl)-phenoxymethyl]-8-hydroxy-1-oxo-1,4,6,6a,7,8,9,10-octahydro-5-oxa-4,10a-diaza-chrysene-2-carboxylic acid]

MIC (S. aureus A798; A798, in the presence of human alkaline phosphatase, read-out: MIC against S. aureus A798): 0.25 µg/mL
MIC (S. aureus A798; A798, phosphatase absent, read-out: MIC against S. aureus A798): 4 µg/mL (≈ 5.89 µM)
SMILES: O=C(O)c1cn(C2CC2)c2c3c(c(F)cc2c1=O)N1C[C@@](COc2ccc(N4C[C@H](CO)OC4=O)cc2F)(OP(=O)(O)O)C[C@H]1CO3 [Example 8, (13S,16S)-1-cyclopropyl-7-fluoro-16-[2-fluoro-4-((R)-5-hydroxymethyl-2-oxo-oxazolidin-3-yl)-phenoxymethyl]-4-oxo-16-phosphonooxy-1,4,13,15,16,17-hexahydro-12H-11-oxa-1,14-diaza-cyclopenta[a]phenanthrene-3-carboxylic acid]

MIC (S. Pneumoniae 49619; in the absence of human serum, read-out: MIC against S. Pneumoniae 49619): ≤ 0.063 µg/mL
SMILES: C[C@H](N)C(=O)OC[C@H]1CN(c2ccc(OC[C@]3(O)C[C@H]4COc5c(c(F)cc6c(=O)c(C(=O)O)cn(C7CC7)c56)N4C3)c(F)c2)C(=O)O1.Cl [Example 11, (13S,16S)-16-{4-[(R)-5-((S)-2-amino-propionyloxymethyl)-2-oxo-oxazolidin-3-yl]-2-fluoro-phenoxymethyl}-1-cyclopropyl-7-fluoro-16-hydroxy-4-oxo-1,4,13,15,16,17-hexahydro-12H-11-oxa-1,14-diaza-cyclopenta[a]phenanthrene-3-carboxylic acid hydrochloride]

MIC (S. Pneumoniae 49619; [1]): 0.25 µg/mL (≈ 0.447 µM)
SMILES: O=C(O)c1c[nH]c2c3c(c(F)cc2c1=O)N1C[C@](O)(COc2ccc(N4C[C@H](CO)OC4=O)cc2F)C[C@H]1CO3 [Example 9, (13S,16S)-7-fluoro-16-[2-fluoro-4-((R)-5-hydroxymethyl-2-oxo-oxazolidin-3-yl)-phenoxymethyl]-16-hydroxy-4-oxo-1,4,13,15,16,17-hexahydro-12H-11-oxa-1,14-diaza-cyclopenta[a]phenanthrene-3-carboxylic acid]

MIC (S. Pneumoniae 49619; [1]): 0.25 µg/mL (≈ 0.426 µM)
MIC (M. catarrhalis A894): 0.125 µg/mL (≈ 0.213 µM)
MIC (S. aureus A798; [2]): 0.5 µg/mL (≈ 0.851 µM)
SMILES: CCn1cc(C(=O)O)c(=O)c2cc(F)c3c(c21)OC[C@@H]1C[C@@](O)(COc2ccc(N4C[C@H](CO)OC4=O)cc2F)CN31 [Example 3, (13S,16S)-1-ethyl-7-fluoro-16-[2-fluoro-4-((R)-5-hydroxymethyl-2-oxo-oxazolidin-3-yl)-phenoxymethyl]-16-hydroxy-4-oxo-1,4,13,15,16,17-hexahydro-12H-11-oxa-1,14-diaza-cyclopenta[a]phenanthrene-3-carboxylic acid]

MIC (S. Pneumoniae 49619; [1]): 0.125 µg/mL (≈ 0.186 µM)
SMILES: C[C@@H](N)C(=O)OC[C@H]1CN(c2ccc(OC[C@]3(O)C[C@H]4COc5c(c(F)cc6c(=O)c(C(=O)O)cn(C7CC7)c56)N4C3)c(F)c2)C(=O)O1 [Example 2, (13S,16S)-16-{4-[(R)-5-((R)-2-amino-propionyloxymethyl)-2-oxo-oxazolidin-3-yl]-2-fluoro-phenoxymethyl}-1-cyclopropyl-7-fluoro-16-hydroxy-4-oxo-1,4,13,15,16,17-hexahydro-12H-11-oxa-1,14-diaza-cyclopenta[a]phenanthrene-3-carboxylic acid]
